ChEMBL document CHEMBL5727861, “Compounds and methods for the enhanced degradation of targeted proteins” (2020)

Molecular target: von Hippel-Lindau disease tumor suppressor (Homo sapiens, UniProt P40337)
Assay: Compounds were transferred from the stock plate to the assay plate and diluted into running buffer containing no DMSO. All compounds were run as a six-concentration series with a final assay top concentration of 100 uM. Data analysis was performed in Scrubber 2 (BioLogic software, Campbell, Australia). Blanks were subtracted and data was corrected for DMSO using a standard DMSO curve.

Sequence of von Hippel-Lindau disease tumor suppressor (P40337 whole entry): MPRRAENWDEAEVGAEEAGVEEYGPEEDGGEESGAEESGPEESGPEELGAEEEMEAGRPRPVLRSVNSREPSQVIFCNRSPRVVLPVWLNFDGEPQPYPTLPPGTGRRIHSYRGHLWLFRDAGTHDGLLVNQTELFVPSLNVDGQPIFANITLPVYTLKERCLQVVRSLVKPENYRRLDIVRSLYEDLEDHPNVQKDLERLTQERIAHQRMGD

**Q.** With `COc1cc([C@H](C(=O)N2C[C@H](O)C[C@H]2C(=O)NCc2ccc(-c3scnc3C)cc2)C(C)C)on1` as the molecule, how does the Kd read?
**A.** Its Kd is 13 µM.
